Patent US10065934B2, “Substituted urea derivatives and pharmaceutical uses thereof” (SUNSHINE LAKE PHARMA CO., LTD., priority 2014, dated 2018)
pIC50: −log10 of the molar value. Where two headings read alike, the source gives them in different places.

How the values were obtained:
MV-4-11 cell = experiment: In vitro cytology inhibitory activity (MV-4-11 cell proliferation, cell viability luminescence); assay type: cell-based; conditions: Homo sapiens, MV4-11; MV-4-11 cells, 72 h incubation
Description: Cell assay condition was shown below:
a. A complete medium was prepared and mixed well. b. Cell was recovered, and cell lines of between about two generations in good condition of growth were selected. c. The cell culture flasks were removed from the incubator, and the labeled cell name on the bottles, culture medium type and cell algebra were checked. d. The cell suspension was pipette into a centrifuge tube, and centrifuged at 800-1000 rpm for 3-5 minutes. e. Cell supernatant of the centrifuge tube was aspirated. f. Appropriate volume of culture medium was added into the centrifuge tube, and the cells were resuspended by gentle pipetting uniform. g. Vi-Cell XR cytometer was used for count. h. The cell suspension was adjusted to the appropriate concentration. i. The cell suspension was added to the bottom wall of the white 96-well plate, 100 microliters/well. Cells name, kind of board density and date were detailed labeled, and the culture plate was placed in CO2 incubator overnight.
2. Preparation and Addition of the Test Compounds
i) Preparation of test compound plates by diluting to 10 concentrations with DMSO: first, the test compound stock solution was prepared by dissolving a weighed compound in DMSO to a concentration of 10 mM, and then diluted to the concentration of 4 mM, which was then diluted to the concentration of 0.4 mM used as the highest concentration for testing with DMSO. The highest concentration was sequentially followed by 3-fold dilution for a total of 10 concentrations. Staurosporine was the positive control drug. ii) Addition of test compounds: a. 0.5 μL of test compound prepared above in compound plate was added into the cell culture plate that had been incubated overnight. Then the culture plate was incubated in an incubator at 37° C. for 72 hours.
3. Detection and Analysis
a. 72 hours after the compound treatment, cells was observed under an inverted microscope morphology, and cell growth state in DMSO control well was normal, there was no contamination. b. The cell culture plate was placed in equilibrium at room temperature for 30 minutes. c. The cell viability detection reagent at 100 μL/well was placed into culture plate. d. The mixture in culture plate was mixed two minutes in the vibration plate machine to induce cell lysis. e. 96-well plate was placed for 10 minutes at room temperature, making it stable luminescent signal. f. White base film was pasted on the bottom of the culture plate, and the plate was tested by using Flexstation3 (related to: light, integration time 500 ms). g. Experimental results were recorded and analyzed.

FLT3 kinase = biological target: T1, FLT3 kinase (Homo sapiens, UniProt P36888); experiment: In vitro enzymatic inhibitory activity (kinase reaction, FAM-labeled peptide); assay type: biochemical; conditions: in vitro enzymatic inhibition
T1 sequence (P36888 27-993): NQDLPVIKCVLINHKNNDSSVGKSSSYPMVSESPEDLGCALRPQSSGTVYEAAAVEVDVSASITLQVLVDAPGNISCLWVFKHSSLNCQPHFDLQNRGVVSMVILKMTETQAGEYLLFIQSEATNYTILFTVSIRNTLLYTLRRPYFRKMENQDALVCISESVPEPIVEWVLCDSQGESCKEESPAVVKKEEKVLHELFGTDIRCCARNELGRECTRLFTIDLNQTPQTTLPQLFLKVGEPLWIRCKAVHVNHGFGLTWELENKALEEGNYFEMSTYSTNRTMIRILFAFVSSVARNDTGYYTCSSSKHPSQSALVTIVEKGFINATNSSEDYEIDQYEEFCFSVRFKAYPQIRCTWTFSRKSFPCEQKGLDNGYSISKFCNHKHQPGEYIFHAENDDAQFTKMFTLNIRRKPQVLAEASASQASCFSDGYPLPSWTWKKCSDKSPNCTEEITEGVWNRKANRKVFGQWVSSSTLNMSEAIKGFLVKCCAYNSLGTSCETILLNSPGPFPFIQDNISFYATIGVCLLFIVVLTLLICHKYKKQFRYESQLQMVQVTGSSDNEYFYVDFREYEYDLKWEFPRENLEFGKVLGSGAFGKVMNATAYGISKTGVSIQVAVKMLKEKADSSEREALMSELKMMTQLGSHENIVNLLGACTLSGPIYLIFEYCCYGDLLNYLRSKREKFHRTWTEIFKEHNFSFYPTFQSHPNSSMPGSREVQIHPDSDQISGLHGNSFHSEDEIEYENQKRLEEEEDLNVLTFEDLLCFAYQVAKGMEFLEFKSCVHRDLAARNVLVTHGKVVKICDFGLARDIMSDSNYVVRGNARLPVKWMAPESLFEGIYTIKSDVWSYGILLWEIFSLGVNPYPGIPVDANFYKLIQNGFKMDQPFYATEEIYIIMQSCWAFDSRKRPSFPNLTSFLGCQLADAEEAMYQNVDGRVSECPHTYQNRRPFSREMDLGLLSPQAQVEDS

[1] = Evaluation of pharmacokinetic activity in male SD rats (iv and oral); assay type: in vivo; conditions: rat, plasma; for Cmax: read-out: Cmax
Description: 1. Preparation of the Test Compound Solutions
The test compound solutions were prepared using appropriate amounts of 5% DMSO, 5% KolliphorHS15 and 90% Saline to dissolve each compound completely.
140-190 g male SD rats were randomly divided into two groups. One group was administered through intravenous drug delivery with the dosage of 1.0 or 2.0 mg/kg, and the other group was administered by oral with the dosage of 5.0 mg/kg. For intravenous administration, caudal vein blood samples at the time points of 0.0833, 0.25, 0.5, 1.0, 2.0, 4.0, 6.0, 8.0 and 24 h were collected after drug administration (the time point of drug administration was set as 0 h); and for oral administration, caudal vein blood samples at the time points of 0.25, 0.5, 1.0, 2.0, 4.0, 6.0, 8.0 and 24 h were collected after drug administration (the time point of drug administration was set as 0 h). Appropriate range of standard curve was established according to the sample concentration, and the test compound concentrations in plasma sample were measured by LC-MS/MS analysis. Pharmacokinetic parameters were calculated by non-compartmental method using WinNonLin 6.3 software based on drug concentration-time curves.

## CC(C)(C)c1cc(NC(=O)Nc2ccc(C#Cc3cnc4ccc(OCCCN5CCOCC5)nn34)cc2)no1 [Example 7, 1-(5-(tert-Butyl)isoxazol-3-yl)-3-(4-((6-(3-morpholinopropoxy)imidazo[1,2-b]pyridazin-3-yl)ethynyl)phenyl)urea]
MV-4-11 cell
  pIC50: 8.49

## CC(C)(C)c1cc(NC(=O)Nc2ccc(C#Cc3ccc(OCCCN4CCOCC4)cc3Cl)cc2)no1 [Example 5, 1-(5-(tert-Butyl)isoxazol-3-yl)-3-(4-((2-chloro-4-(3-morpholinopropoxy)phenyl)ethynyl)phenyl)urea]
FLT3 kinase
  pIC50: 6.72

## CC(C)(C)c1cc(NC(=O)Nc2ccc(C#Cc3ccc(OCCCN4CCOCC4)cc3)cc2)no1 [Example 21, 1-(5-(tert-Butyl)isoxazol-3-yl)-3-(4-((4-(3-morpholinopropoxy)phenyl)ethynyl)phenyl)urea]
MV-4-11 cell
  pIC50: 8.55

## CC(C)(C)c1cc(NC(=O)Nc2ccc(C#Cc3ccc(OCCCN4CCOCC4)cc3)cc2O)no1 [Example 87, 1-(5-(tert-butyl)isoxazol-3-yl)-3-(2-hydroxy-4-((4-(3-morpholinopropoxy)phenyl)ethynyl)phenyl)urea]
MV-4-11 cell
  pIC50: 7.59

## CC(C)(C)c1cc(NC(=O)Nc2ccc(C#Cc3ccc(OCCCN4C[C@@H]5OCCO[C@@H]5C4)cc3)cc2)no1 [Example 11, 1-(5-(tert-butyl)isoxazol-3-yl)-3-(4-((4-(3-((4aR,7aS)-tetrahydro-2H-[1,4]dioxino[2,3-c]pyrrol-6(3H)-yl)propoxy)phenyl)ethynyl)phenyl)urea]
FLT3 kinase
  pIC50: 6.77

## CC(C)(C)c1cc(NC(=O)Nc2ccc(C#Cc3ccc(OCCCN4CCOCC4)cc3)cc2F)no1 [Example 81, 1-(5-(tert-Butyl)isoxazol-3-yl)-3-(2-fluoro-4-((4-(3-morpholinopropoxy)phenyl)ethynyl)phenyl)urea]
MV-4-11 cell
  pIC50: 8.33

## CC(C)(CO)c1cc(NC(=O)Nc2ccc(C#Cc3ccc(OCCCN4CCOCC4)cc3)cc2)no1 [Example 84, 1-(5-(1-Hydroxy-2-methylpropan-2-yl)isoxazol-3-yl)-3-(4-((4-(3-morpholinopropoxy)phenyl)ethynyl)phenyl)urea]
MV-4-11 cell
  pIC50: 8.68

## CC(C)(C)c1cc(NC(=O)Nc2ccc(C#Cc3ccc(OCCCN4CCOCC4)c(F)c3)cc2)no1 [Example 1, 1-(5-(tert-Butyl)isoxazol-3-yl)-3-(4-((3-fluoro-4-(3-morpholinopropoxy)phenyl)ethynyl)phenyl)urea]
FLT3 kinase
  pIC50: 6.94

## CC(C)(C)c1cc(NC(=O)Nc2ccc(C#Cc3ccc(OCCCN4CCOCC4)c(O)c3)cc2)no1 [Example 86, 1-(5-(tert-Butyl)isoxazol-3-yl)-3-(4-((3-hydroxy-4-(3-morpholinopropoxy)phenyl)ethynyl)phenyl)urea]
MV-4-11 cell
  pIC50: 9.05

## CC(C)(C)c1cc(NC(=O)Nc2ccc(C#Cc3ccc(OCCN4CCOCC4)cc3)cc2)no1 [Example 25, 1-(5-(tert-Butyl)isoxazol-3-yl)-3-(4-((4-(2-morpholinoethoxy)phenyl)ethynyl)phenyl)urea]
FLT3 kinase
  pIC50: 7.08

## CC(C)(C)c1cc(NC(=O)Nc2ccc(C#Cc3ccc(OCCC[N+]4([O-])CCOCC4)cc3F)cc2)no1 [Example 83, 4-(3-(4-((4-(3-(5-(tert-Butyl)isoxazol-3-yl)ureido)phenyl)ethynyl)-3-fluorophenoxy)propyl) morpholine 4-oxide]
MV-4-11 cell
  pIC50: 8.64

## COc1cc(C#Cc2ccc(NC(=O)Nc3cc(C(C)(C)C)on3)cc2)ccc1OCCCN1CCOCC1 [Example 20, 1-(5-(tert-Butyl)isoxazol-3-yl)-3-(4-((3-methoxy-4-(3-morpholinopropoxy)phenyl)ethynyl)phenyl)urea]
FLT3 kinase
  pIC50: 6.96

## CC(C)(C)c1cc(NC(=O)Nc2ccc(C#Cc3ccc(OCCCN4CCOCC4)nc3)cc2)no1 [Example 17, 1-(5-(tert-Butyl)isoxazol-3-yl)-3-(4-((6-(3-morpholinopropoxy)pyridin-3-yl)ethynyl)phenyl) urea]
MV-4-11 cell
  pIC50: 7.93

## CC(C)(CO)c1cc(NC(=O)Nc2ccc(C#Cc3ccc(OCCCN4CCOCC4)cc3F)cc2)no1 [Example 85, 1-(4-((2-Fluoro-4-(3-morpholinopropoxy)phenyl)ethynyl)phenyl)-3-(5-(1-hydroxy-2-methylpropan-2-yl)isoxazol-3-yl)urea]
MV-4-11 cell
  pIC50: 8.80

## CC(C)(C)c1cc(NC(=O)Nc2ccc(C#Cc3cnc4c(OCCN5CCOCC5)ccnn34)cc2)no1 [Example 9, 1-(5-(tert-Butyl)isoxazol-3-yl)-3-(4-((8-(2-morpholinoethoxy)imidazo[1,2-b]pyridazin-3-yl)ethynyl)phenyl)urea]
[1]; iv, 1 mg/kg
  AUC(0-inf): 1390 ng·h/mL
  AUC(0-t): 1330 ng·h/mL
  Tmax: 0.083 h
  half-life: 1.7 h
  Cmax: 793 ng/mL
[1]; iv, 1 mg/kg, read-out: Vss
  Vd: 1.62 L/kg
[1]; po 5 mg/kg vs iv 1 or 2 mg/kg
  bioavailability: 116%
[1]; po, 5 mg/kg
  AUC(0-inf): 8030 ng·h/mL
  AUC(0-t): 8010 ng·h/mL
  Tmax: 2.67 h
  half-life: 2.85 h
  Cmax: 1090 ng/mL

## CC(C)(C)c1cc(NC(=O)Nc2ccc(C#Cc3ccc(OCCCN4CCC5(COC5)C4)cc3)cc2)no1 [Example 19, 1-(4-((4-(3-(2-Oxa-6-azaspiro[3.4]octan-6-yl)propoxy)phenyl)ethynyl)phenyl)-3-(5-(tert-butyl)isoxazol-3-yl)urea]
MV-4-11 cell
  pIC50: 7.86

## CC(C)(CO)c1cc(NC(=O)Nc2ccc(C#Cc3ccc(OCCC[N+]4([O-])CCOCC4)cc3F)cc2)no1 [Example 89, 4-(3-(3-Fluoro-4-((4-(3-(5-(1-hydroxy-2-methylpropan-2-yl)isoxazol-3-yl)ureido)phenyl)ethynyl)phenoxy)propyl)morpholine 4-oxide]
MV-4-11 cell
  pIC50: 8.32

## CC(C)(CO)c1cc(NC(=O)Nc2ccc(C#Cc3ccc(OCCC[N+]4([O-])CCOCC4)cc3)cc2)no1 [Example 88, 4-(3-(4-((4-(3-(5-(1-Hydroxy-2-methylpropan-2-yl)isoxazol-3-yl)ureido)phenyl)ethynyl)phenoxy)propyl)morpholine 4-oxide]
MV-4-11 cell
  pIC50: 8.74

## CC(C)(C)c1cc(NC(=O)Nc2ccc(C#Cc3ccc(OCCC[N+]4([O-])CCOCC4)cc3)cc2)no1 [Example 82, 4-(3-(4-((4-(3-(5-(tert-Butyl)isoxazol-3-yl)ureido)phenyl)ethynyl)phenoxy)propyl)morpholine 4-oxide]
MV-4-11 cell
  pIC50: 8.52
